Test results reported in patent US7947653B1, “Methods for treating epidermal growth factor receptor tyrosine kinase inhibitor-resistant cancers” (Cold Spring Harbor Laboratory, priority 2009, dated 2011).

Legend:
P-EGFR = test: Western blot for P-EGFR, parental and resistant cells; assay type: cell-based, human; conditions: parental versus NCI-H1650 M3, erlotinib 0.01-10 μM, 3 hours
Excerpt: (§1) Antibodies against phosphor-EGFR (Tyr1068), total Akt, phospho-Akt (Ser473), total ERK 1/2, phospho-ERK 1/2 (Thr202/tyr204), phospho-STAT3 (Tyr705), cleaved PARP and phospho-MET (Tyr1234/Tyr1235) were purchased from Cell Signaling Technology (Danvers, Mass.). Total cMET and total EGFR antibodies were purchased from Santa Cruz Biotechnology (Santa Cruz, Calif.). The antibody against total STAT3 was purchased from BD Biosciences (San Jose, Calif.).

phospho-STAT3 [1] = test: Western blot for phospho-STAT3, parental cells; assay type: cell-based, human
Description: as §1, with “Adherent cells were washed with 1×PBS and whole cell lysate was extracted and western blot analysis was performed as previously described (Sordella et al. Science 305, 1163-1167; 2004). Antibodies” for “Antibodies”
(§2) Cell extracts were analyzed by immunoblotting with antibodies specific to Tubulin, AKT, P-AKT, STAT3, and P-STAT3.

NCI-H1650 = test: Sensitivity to erlotinib, MTT assay; assay type: cell-based; conditions: Homo sapiens, read-out: IC50 to either gefitinib or erlotinib treatment; NCI-H1650, EGFR delE746-A750; 'typically displays'
P-AKT = test: Western blot for P-AKT; assay type: cell-based, human
Description: as §1, §2

phospho-STAT3 [2] = test: Western blot for phospho-STAT3, NCI-H1650 M3 cells; assay type: cell-based, human
Description: as §1, with “Adherent cells were washed with 1×PBS and whole cell lysate was extracted and western blot analysis was performed as previously described (Sordella et al. Science 305, 1163-1167; 2004). Antibodies” for “Antibodies”
To determine whether IL-6 was the autocrine factor responsible for promoting STAT3 phosphorylation in the erlotinib-resistant cells, the expression of IL-6 was inhibited using siRNA technology. Briefly, NCI-H 1650 M3 cells were transfected with siRNA targeting IL-6 (siRNA I and II) or a non-specific siRNA (siRNA III) using Lipofectamine 2000 at a final concentration of 30 nM siRNA. After 6 days cell extracts were analyzed by immunoblotting for phospho-STAT3, STAT3 and tubulin. […] Thus, an increased secretion of IL-6 was responsible for the observed STAT3 phosphorylation. […] Cell extracts were analyzed by immunoblot for phospho-STAT3 and total STAT3. […]

cleaved PARP = test: Immunoblot for cleaved PARP (apoptosis); assay type: cell-based, human
Description: as §1, with “Adherent cells were washed with 1×PBS and whole cell lysate was extracted and western blot analysis was performed as previously described (Sordella et al. Science 305, 1163-1167; 2004). Antibodies” for “Antibodies”
Cells not treated with the drug were used as a control. Cell extracts obtained after 72 hours were analyzed by immunoblotting for cleaved PARP (CL-PARP), an indicator of apoptosis status.

NCI-H1650 M3 cells = test: Sensitivity to erlotinib, MTT assay, erlotinib-resistant cells; assay type: cell-based, human
Description: Viability was measured by MTT assay relative to untreated cells, with each data point showing the average of four replicates.

IL-6 [3] = test: IL-6 ELISA of cell media; assay type: cell-based, human; conditions: NCI-H1650 M3, in the presence of erlotinib 10 μM
Description: Cells were grown to approximately 80% confluency. Cells were washed with 1×PBS and fresh media was added. After 24 hours the supernatant was collected and analyzed for IL-6 using an ELISA kit (Diaclone, Canton, Mass.) following the manufacturers instruction.
The mRNA levels of various secreted proteins, including HGF, EGF, LIF, CNTF, IL-1A, IL-11, OSM and IL-6 (which are known to increase STAT3 phosphorylation), were examined by RT-PCR, the results normalized against beta-actin mRNA levels. No substantial levels of HGF were detected in either the parental-sensitive cells or in the resistant cells. Among these protein factors, a substantial increase in IL-6 mRNA levels was found in the resistant cells as compared to parental cells. This increase in IL-6 mRNA expression correlated with augmented levels of the protein secretion as determined by enzyme-linked immunosorbent assay (ELISA). See FIG. 2, Panel A; levels of IL-6 were measured by ELISA with each point representing the average of four data points.

NCI-H1650 cells [4] = test: Soft agar assay; assay type: cell-based, human; conditions: NCI-H1650, erlotinib with or without IL-6 (10 ng/ML)
Description: Cells were plated in triplicate in 12-well plates at 5000 cells/well, mixed in RPMI-1640, 5% FBS and 0.35% agarose. Cells were cultured for 20 days in presence of the indicated treatment. Colonies were visualized by staining with tetrazolium salt (Schaeffer W. I., Friend K. (1976) Cancer Lett 1:259-262). The number of colonies were determined using the J-Image software (htpp://rsbweb.hih.gov/ij/) on Z-stack images (Z=1.5 mm) at 5× magnification. Each data point represents the average of 3 fields from 3 individual wells.
The numbers of cell colonies were countered after a suitable period of time. The number of colonies were determined using the J-image software on Z-stack images (Z=1.5.mm) at 5× magnification. […] See FIG. 3, Panel C (each point represents the average of 3 fields from individual wells). […] See FIG. 3, Panel D (each bar representing the average of 4 replicates).

PC9 cells = test: Sensitivity to erlotinib with IL-6, MTT assay; assay type: cell-based, human; conditions: PC9, 10 ng/ml IL-6 24 hours, then erlotinib at various concentrations 72 hours
[5] = tested on: NSCLC cell lines expressing mutant EGFR; test: Cell proliferation upon stimulation with IL-6; assay type: cell-based, human; conditions: stimulation with IL-6 (10 ng/ml)
IL-6 [6] = test: IL-6 immunostaining of tumor sections; assay type: in vivo, Nu/Nu mice; conditions: TPA-treated versus acetone-treated mice, topical
Description: Formalin-fixed, paraffin-embedded sections (4 μm) were stained for IL-6. Sections were de-embedded and rehydrated and epitope retrieval was performed by heating the sections in 0.01M citrate buffer at pH 6.0 in a microwave oven for 10 minutes. Endogenous peroxidase activity was blocked by treatment with 3% hydrogen peroxide in PBS for 10 minutes. After washing with PBS the blocking was performed using the Avidin/Biotin blocking kit (Vector laboratories, Cambridge, UK), Super Block (ID laboratories, London, CDN) and Mouse Block (ID laboratories, London, CDN). The sections were incubated with the primary antibody IL-6 (ab6672; Abcam, Cambridge, UK) in 1:300 dilution at 4° C. overnight. The IHC detection was done with the IDetect Super Stain System HRP (ID laboratories, London, CDN). […]
Protein expression was measured by defining regions of interest (ROI) using automated cell acquisition and quantification software for Immunohistochemistry (Histoquest™) and immunofluorescence (Tissuequest™).
Immunostaining of tumor sections using an anti-IL-6 antibody confirmed that TPA was able to augment IL-6 expression in the tumors. […] The levels of IL-6 in tumor matters were further measured by defining regions of interest (ROI) using automated cell acquisition and quantification software for immunohistochemistry (Histoquest™) or quantification software for immunofluorescence (Tissuequest™). […]

NCI-H1650 cells [7] = test: Mouse xenograft model, tumor burden; assay type: in vivo, Nu/Nu mice; conditions: topical TPA 5 days, then erlotinib by oral gavage versus DMSO
Description: The in vivo mouse experiments were performed by inoculating subcutaneously 3×10^6 NCI-H1650 cells subcutaneously into each flank of immunodeficient Nu/Nu mice in Swiss CD 1 background (Charles River Breeding Laboratories, Wilmington, Mass.). After the tumors reached a volume of approximately 100 mm^3, mice were treated topically every 2 days with TPA (10 μL of 0.25 mg/mL solution in acetone) or with acetone for 5 days. […] Tumor volume was monitored with a digital caliper and calculated using the following formula: (length)×(width)^2/2.
IL-6 is a pleiotropic cytokine that exerts important biological functions in a wide variety of systems and processes (e.g., inflammation, acute-phase reaction, nervous and endocrine systems, bone metabolism, hematopoiesis). […] Cutaneous inflammation and secretion of IL-6 by topic treatment of the mouse epidermis with low dose of 12-O-tetradecanoyl-phorbol-13-acetate (TPA) every other day was induced in a Nu/nu mouse model (Vasunia et al. Carcinogenesis 1994, 15: 653). Acetone was used as a vehicle control. The Nu/nu mice were subsequently injected in the flank with NSCLC expressing mutant EGFR.
After 8 days, tumor burden was evaluated and the averages of four separate tumors were charted.

[8] = cells grown with or without IL-6, then erlotinib 4 hours, cell line not stated

Compound: C#Cc1cccc(Nc2ncnc3cc(OCCOC)c(OCCOC)cc23)c1 [erlotinib, N-(3-ethynylphenyl)-6,7-bis(2-methoxyethoxy)quinazolin-4-amine]
- EGFR phosphorylation levels upon erlotinib treatment (P-EGFR): comparable inhibition
- phosphorylated STAT3 (phospho-STAT3 [1]; parental NCI-H1650 cells, high erlotinib concentrations, 3 hours): undetectable
- IC50 (NCI-H1650): ~5 µM
- levels of phosphorylation of AKT (P-AKT; parental versus NCI-H1650 M3, erlotinib treatment): similarly inhibited
- STAT3 phosphorylation levels (phospho-STAT3 [2]; NCI-H1650 M3, erlotinib up to 10 μM, 3 hours): maintained high STAT3 phosphorylation levels
- cleavage of PARP upon erlotinib treatment (cleaved PARP; NCI-H1650 M3 compared to parental cells, erlotinib 10 μM, 24 hours): substantial decrease
- level of CL-PARP in erlotinib-treated cells compared to control cells (cleaved PARP; resistant cells, extracts after 72 hours): significantly increased
- erlotinib concentration in the presence of which the isolated cell line is capable of growing (NCI-H1650 M3 cells; NCI-H1650 M3, selected in constant high erlotinib): up to 30 μM
- cell viability of NCI-H1650 M3 cells versus parental cells (NCI-H1650 M3 cells; erlotinib 0.3125-10 μM, 72 hours, particularly at high concentrations): much higher than that of the parental cells
- IL-6 levels in the media (ELISA) (IL-6 [3]): did not change

Compound: IL-6: Recombinant Interleukin-6 (rhIL6) from R&D systems
- cell resistance to erlotinib (number of colonies in soft agar) (NCI-H1650 cells [4]): significantly increased cell resistance to erlotinib
- cell resistance to erlotinib (viability by MTT) (PC9 cells): increased PC9 cell resistance to erlotinib
- cell proliferation [5]: No substantial changes
- effect on erlotinib-mediated inhibition of STAT3 phosphorylation (phospho-STAT3 [1]; [8]): impaired inhibition of STAT3 phosphorylation
- effect on erlotinib-mediated inhibition of AKT activation (P-AKT; [8]): did not have any effect
- CL-PARP levels in the drug treated cells (cleaved PARP; resistant cells grown with IL-6 24 hours, then erlotinib, 72 hours): decreased CL-PARP levels

Compound: CCCCCCCCCCCCCC(=O)O[C@@H]1[C@@H](C)[C@@]2(O)[C@@H](C=C(CO)C[C@]3(O)C(=O)C(C)=C[C@@H]23)[C@@H]2C(C)(C)[C@]12OC(C)=O [TPA, 12-O-tetradecanoyl-phorbol-13-acetate]
- IL-6 mean intensity in tumors (IL-6 [6]): much higher
- tumor response to erlotinib treatment (tumor burden) (NCI-H1650 cells [7]): dramatically reduced

Compound: CC(C)(C)c1nc2c3ccc(F)cc3c3c(=O)[nH]ccc3c2[nH]1 [P6, 2-tert-butyl-9-fluoro-3,6-dihydro-7H-benz[h]-imidaz[4,5-f] isoquinoline-7-one]
- STAT3 phosphorylation levels (phospho-STAT3 [2]; NCI-H1650 M3, 2 μM, 2 days): decreased
- cell viability upon erlotinib treatment (NCI-H1650 M3 cells; NCI-H1650 M3, P6 2 μM): significantly decreased
